Test results reported in patent publication US20250381307A1, “RETRO-AAV AND USE IN TREATING NEURODEGENERATIVE DISEASES” (priority 2023, published 2025).

Assays:
rM3Ds = target: T1, rM3Ds (Rattus norvegicus, UniProt P08483, A177S/A238G/A489L/DEL261-437/DEL441-478/E258S/I253V/I483M/INS256[…]/K178L/K182A/K255R/K484R/K486H/L173F/L482A/M480V/R171S/R176Q/R179M/S481M/T174R/T181R/T257A/Y148C); assay: 6-OHDA parkinsonian mouse model: open field and rotarod; type: in vivo, C57/BL6 mice; parameters: rM3Ds; 2A-EYFP (C); host or cells: AAV8R12-transduced striatal D1-MSNs of mice and cynomolgus macaques (in vivo and acute slices); details: AAV8R12-G88P7-rM3Ds-2A-EYFP, 6-OHDA mice
T1 sequence (P08483 with tags, fused parts or gaps Y148C/R171S/L173F/T174R/R176Q/A177S/K178L/R179M/T181R/K182A/A238G/I253V/K255R/INS256[…]/T257A/E258S/DEL261-437/DEL441-478/M480V/S481M/L482A/I483M/K484R/K486H/A489L): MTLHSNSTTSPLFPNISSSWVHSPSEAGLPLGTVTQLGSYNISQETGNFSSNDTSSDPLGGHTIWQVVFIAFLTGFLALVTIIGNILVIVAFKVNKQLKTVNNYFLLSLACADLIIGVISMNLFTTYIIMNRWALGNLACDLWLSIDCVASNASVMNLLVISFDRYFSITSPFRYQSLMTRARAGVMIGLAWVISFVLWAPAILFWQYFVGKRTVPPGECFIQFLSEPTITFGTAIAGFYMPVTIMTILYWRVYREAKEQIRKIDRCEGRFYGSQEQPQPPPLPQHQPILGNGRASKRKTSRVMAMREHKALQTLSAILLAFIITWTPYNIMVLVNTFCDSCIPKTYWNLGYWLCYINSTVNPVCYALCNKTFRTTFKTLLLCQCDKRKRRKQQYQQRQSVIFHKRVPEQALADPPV
Procedure: Rodent Parkinson's disease mice models were created through bilateral injection of 6-OHDA using the same methods as described in virus injections (Example 3). A total volume of 1 ul 6-OHDA (5 mg/ml, dissolved in sterile saline containing 0.02% ascorbic acid, Sigma) was injected into the striatum at a speed of 100 nL/min. The coordinates for striatum were 0.5 mm anterior, 1.5 mm lateral, 3.2 mm ventral to the bregma. A premedication of desipramine (25 mg/kg, Sigma) was administered to animals prior to injections of 6-OHDA, in order to increase the selectivity and efficacy of 6-OHDA-induced lesions. Mice were supplemented with DietGel (ClearH2O) for one-week post-surgery. All staining and behavioral experiments were performed at least 14 days following surgery, when the amount of dopamine depletion was maximal and stable.
Mice were individually handled for 10-20 seconds per day for at least 5 days to habituate them to the experimenter. The open field test was conducted in a test apparatus (50 cm×50 cm×50 cm) with an HD digital camera (Sony) positioned above the arena. On day one, mice were habituated to the apparatus for 10 minutes. […] The behavioral data were analyzed with ANY-maze software (Stoelting Co.).
Mice were individually handled as described in the open field test. […] Latency to fall for each trial was automatically recorded by the apparatus. […]

hM3Dq or rM3Ds = assay: Locomotion test in macaques with nigral hM3Dq or rM3Ds AAV after CNO; type: in vivo
Procedure: To guide the virus injection in SNr, a guide grid of multiple holes spaced by 1 mm was installed on each subject vertically above the SN. By filling vitamin E in these holes, the accurate coordinates for injection could be obtained from the T1-weighted MRI images (3T Tim Trio scanner, Siemens). Virus injections were performed in nine sites covering the whole SNr, and a total volume of 27 μL virus was unilaterally injected in the right SNr at the speed of 300 nL/min.
The locomotion tests for monkeys were conducted in a custom-made observation cage (100 cm×100 cm×100 cm). The top and front of the cage were made of toughened glass in order to gain a clear view for behavioral recording. Monkeys were habituated to the observation cage by placing them inside for 30 minutes on three separate days.
For monkeys injected with AAV8R12-G88P3-HA-hM3Dq, CNO was intracranially infused into the dorsomedial caudate through the recording chamber. To infuse while the animal was awake, the monkey was trained to sit in a primate chair specially designed with its head fixed to the primate chair by a mask made of thermoplastic materials. Injections were conducted through a 33-Gauge needle connected to a 250 μL syringe via a polyethylene pipe (Hamilton, Neuros). […] The needle was held for 5 minutes for drug diffusion before retraction. For monkeys injected with AAV8R12-G88P7-rM3Ds-2A-EYFP, CNO was infused via intramuscular injection (10 mg/kg). […] Videos capturing the subjects' behavior were recorded for at least 90 minutes. Animal behaviors from 30-90 minutes after saline/CNO infusion were further analyzed and quantified.
For rotation analysis, only movements that occurred lower than 30 cm on the z-axis were counted. To determine the direction of the rotation, we first computed the center for the rotation data in the x-y plane as (x0, y0) by averaging all data points, and then we computed the angle relative to (x0, y0) for each time point by the following formula:
where θi represents the rotating angle at time i, and (xi, yi) represents the x-y coordinate at time i. We then calculated the change of rotating angle as Δθi=θi−θi-1. For right nigral injections, when Δθ<0, the direction of the rotation was anticlockwise and was labeled as a contraversive rotation. When Δθ>0, the direction of the rotation was clockwise and was labeled as an ipsiversive rotation. The raw data were analyzed and plotted through a custom R package. Code is available on Github (github.com/chenyef/PD_ana/blob/main/Behavior_ana.txt).

C[N+]1([O-])CCN(C2=Nc3cc(Cl)ccc3Nc3ccccc32)CC1 [CNO, clozapine N-oxide]
motor skill in rotarod test (rM3Ds; CNO): partially rescued the motor skill deficit | spontaneous movement in an open field (rM3Ds; systemic CNO): drastically reversed the dyskinesia-like phenotype of PD mice | muscle tone by electromyogram recordings (hM3Dq or rM3Ds; following CNO infusions): an increase in the muscle tone of the contralateral biceps brachii | contraversive rotations (FIG. 10C) (hM3Dq or rM3Ds; intracranial (hM3Dq) or systemic (rM3Ds) CNO, n=4 monkeys, mean±SEM, saline 1.004±0.2667): 6.649±1.662 | velocity of ipsiversive rotations (FIG. 10H) (hM3Dq or rM3Ds; n=4 monkeys, saline 37.43±3.264, not significant): 41.37±6.566 | speed during contraversive rotations (FIG. 10G) (hM3Dq or rM3Ds; n=4 monkeys, saline 38.42±5.465): 46.98±6.669 | time in the top portion of the observing cage (FIG. 10D) (hM3Dq or rM3Ds; n=4 monkeys, saline 68.42±10.7): 33.74±2.641 | total distance (FIG. 10F) (hM3Dq or rM3Ds; n=4 monkeys, saline 71.53±15.4, not significant): 97.37±19.41 | immobile time (FIG. 10E) (hM3Dq or rM3Ds; n=4 monkeys, saline 107.1±2.322, not significant): 89.13±8.379 | rotations 2.5 years after the nigral injections (hM3Dq or rM3Ds; systemic CNO, unilateral AAV8R12-G88P7-rM3Ds-2A-EYFP): increased contraversive rotations
